The conditions of one series: pH 5.0.
One may read the logD as lipophilicity at a set pH, counting ionised and neutral species. Low readings indicate a more hydrophilic compound, high ones a more lipophilic compound. Consider `Cc1c(N[C@@H](NC(=O)c2cccc([N+](=O)[O-])c2)C(Cl)(Cl)Cl)c(=O)n(-c2ccccc2)n1C`, for which the log distribution coefficient (logD) amounted to 3.99. Still for that read-out and setting: the same measure for `C[C@@H]1C=CC[C@@H]2C(=O)N(c3cccc(C(=O)OCC(=O)c4ccc(Br)cc4)c3)C(=O)[C@H]12`: 5.29. On the same count and under the same terms, next, `CCOC(=O)N1CCN(C(=O)c2noc3c2C[C@@H](C(C)(C)C)CC3)CC1`: 4.52; `Cc1ccc(C)c(NC(=O)[C@H]2CC3c4ccccc4C2c2ccccc23)c1`: 5.26. Still for that read-out and setting: next, `C[C@@H](NC(=O)CN(C1CCCCC1)S(=O)(=O)c1ccccc1)c1ccccc1`: 4.9; `Cc1ccc(N2C(=O)N(c3cccc(Cl)c3)[C@@H]3CS(=O)(=O)C[C@@H]32)cc1`: 3.56. In turn, `COC(=O)[C@H](CCSC)NC(=O)c1cc2c(n(-c3ccccc3)c1=O)CC(C)(C)CC2=O` yielded a logD of 3.97. The same measure, in the same setting: the same measure for `COc1ccc(C(=O)/C=C/C=C(Cl)Cl)cc1`: 4.4; for `C[C@@]12CC[C@H]3C[C@]1(C#N)N(C(=O)c1cccc([N+](=O)[O-])c1)C[C@]32C`: 3.25. Still for that read-out and setting: the same measure for `O=C(NC[C@@H]1CCCO1)c1sc2ccccc2c1Cl`: 3.56. On the same count and under the same terms, next, `COc1cc([C@H]2C(C(=O)c3ccccc3)=C(N)N(c3ccccc3C(F)(F)F)C3=C2C(=O)CCC3)cc(OC)c1OC`: 4.51; `COc1cc(C#N)ccc1OC(=O)/C=C/c1cccc(F)c1`: 4.46. In the case of `C#CCN1C(=O)[C@H]2CC[C@@](C)(C1=O)C2(C)C`, the log distribution coefficient (logD) was found to be 2.28. Turning to `Cc1cc(C)c([C@H]2[C@@H]3CCCC=C3C(C#N)=C(N)C2(C#N)C#N)c(C)c1`, the log distribution coefficient (logD) came to 5.48.

In the case of `CN1C(=CC(=O)COC(=O)C(c2ccccc2)c2ccccc2)C(C)(C)c2ccccc21`, the logD worked out at 6.27.

Compound `CCOC(=O)CN1C(=O)[C@@H](OC(=O)c2ccccc2)[C@@H](OC(=O)c2ccccc2)C1=O` had a logD of 5. Same read-out and setting: the same measure for `CCOC(=O)C1=C(C)OC(N)=C(C#N)[C@H]1c1cccc(I)c1`: 4.48.

The same series, now with this note: pH 6.5.
`O=C(CN1C(=O)/C(=C2\SC(=S)N(Cc3ccco3)C2=O)c2ccccc21)Nc1ccc(F)cc1` showed a logD of 6.36. Still for that read-out and setting: next, `COC(=O)c1cc(N2C(=O)[C@H]3[C@@H](C2=O)[C@]2(C(OC(C)=O)OC(C)=O)C=C[C@H]3O2)ccc1Cl`: 3.77.

Still in this series, the particulars now being: pH 7.3.
With `O=C(Nc1ccccc1)[C@H]1CC(=O)N(Cc2ccccc2)/C(=N/c2ccc(F)cc2)S1`, the logD is 6. The same measure, in the same setting: next, `O=C1C[C@@H](n2nc(-c3ccccc3)n(-c3ccccc3)c2=S)[C@@H]2CO[C@H]1O2`: 3.65.

The series is the same for the next values; noted with them: pH 8.0.
As for `CCCc1[nH]nc2c1[C@@]1(C(=O)N(CC(N)=O)c3ccccc31)C(C(=O)OC)=C(N)O2`, the logD turned out to be 4.48.

The series is the same for the next values; noted with them: pH 10.0.
For `CCOC(=O)[C@H]1N=C(C2=C(O)c3ccccc3C2=O)[C@@H]2C(=O)N(N(C)c3ncc(C(F)(F)F)cc3Cl)C(=O)[C@@H]21`, the logD worked out at 4.38. On the same count and under the same terms, the same measure for `Clc1cccc(Cl)c1Cn1ccc(Nc2nnc(Cc3ccc(-n4cnnn4)cc3)s2)n1`: 4.99; for `CCc1ccc([C@@H]2C(C(=O)OC(C)C)=C(C)N=C3SCCC(=O)N32)cc1`: 4.75; for `CC[C@@H](SC1=Nc2ccccc2C2=N[C@@H](Cc3ccccc3)C(=O)N12)C(=O)N1CCOCC1`: 3.95. Still for that read-out and setting: the same measure for `CCOC(=O)c1c(CC(C)C)csc1/N=C/c1c(C)nn(-c2ccccc2)c1O`: 5.16; for `Cc1nn(C)cc1-c1cc(C(F)(F)F)n2nc(C(=O)N3C[C@@H](C)O[C@@H](C)C3)cc2n1`: 4.11. Still for that read-out and setting: the same measure for `C(=N\n1cnnc1)/c1ccc(-n2nc(-c3ccccc3)cc2-c2ccccc2)cc1`: 5.58.

Still in this series, the particulars now being: pH 10.5.
`COc1cc([C@@H]2C(C#N)=C(N)Oc3[nH]nc(C)c32)ccc1OCc1cccc(F)c1`: the logD is 4.42. Still for that read-out and setting: next, `Cc1cc(C)n(CCOC(=O)[C@H]2[C@H](C=C(Cl)Cl)C2(C)C)n1`: 4.76; `CCOc1ccc(C2=NN=C3OC(N)=C(C#N)[C@@H](c4ccco4)[C@@H]32)c(OCC)c1`: 4.48. `CCOC(=O)C1=C(C)N=c2s/c(=C\c3ccc(OC(C)=O)cc3)c(=O)n2C1c1cccs1` (stereo not drawn) yielded a logD of 4.77.

(Values after the SangsterLogP compilation.)
